Tested on: classical complement pathway
Experiment: In vitro haemolysis assay (inhibition of classical complement pathway)
Type: cell-based, human
Settings: human serum, sensitized sheep red blood cells; Table 3, given as upper bounds; read-out: IC50, inhibition of hemolysis
Protocol: The in vitro effect of the compounds of the present invention was assessed by measuring their inhibitory effect of the classical complement pathway in a haemolysis assay. Briefly, compounds of the present invention and reference compounds were dissolved in DMSO and diluted in Tris/Casein Assay Buffer (10 mM Tris, 145 mM NaCl, 0.5 mM MgCl2, 0.15 mM CaCl2), and 0.1% W/V Casein, adjusted to pH 7.4) as 9-point serial dilutions in a 96 well plate. Sensitized sheep red blood cells (RBC) coated with rabbit anti-sheep erythrocyte antiserum (Complement Technology, Inc., TX, USA) were washed in Tris/Casein Assay Buffer. […] from each well of diluted compound was added to a 96-well plate containing 50 μL diluted human serum (Complement Technology, Inc., TX, USA) and incubated for 15 minutes at room temperature. The serum dilution factor was optimized for every serum batch to obtain 70-90% of maximal haemolysis using the protocol. Then 50 μL sensitized sheep red blood cells were added to all wells (10^7 per well). After 30 minutes of incubation at 37 QC with gentle agitation, the reaction was stopped by addition of 50 μL Tris STOP Buffer per well (10 mM EDTA, 10 mM Tris, 145 mM NaCl adjusted to pH 7.4). The RBCs were then removed by centrifugation and the resulting supernatant measured for hemolysis by absorbance at 405 nm. […]

For “Ac-IC(1)IWQDWGEHRC(1)TEG-K((15-carboxy-pentadecanoyl)-[(Piperazine-1-yl)-acetyl][Peg3][Peg3])-NH2 [Compound 95]”, the IC50 was < 500 nM.

— US11965039B2, “Compstatin analogues and their medical uses” (priority 2018, dated 2024)
